Data on 16 compounds can be found in article PMC7996328, “Design, Synthesis, and Biological Evaluation of a Series of 5- and 7-Hydroxycoumarin Derivatives as 5-HT1A Serotonin Receptor Antagonists” (Pharmaceuticals, 2021).

As a reminder, the melting point is the temperature of the solid-liquid transition. What is called IC50 is the concentration that gives 50% inhibition. Broadly, the EC50 is the concentration at which the effect is half-maximal.

The target in one data set is T1, 5-HT1A receptor (Rattus norvegicus, UniProt P19327).
T1 construct: Hippocampal homogenates (15 μg/mL) were added to each tube as the 5-HT1A receptor source; from tissue; host or cells: rat hippocampus (male Sprague-Dawley), membrane homogenate
T1 sequence (P19327 1-422): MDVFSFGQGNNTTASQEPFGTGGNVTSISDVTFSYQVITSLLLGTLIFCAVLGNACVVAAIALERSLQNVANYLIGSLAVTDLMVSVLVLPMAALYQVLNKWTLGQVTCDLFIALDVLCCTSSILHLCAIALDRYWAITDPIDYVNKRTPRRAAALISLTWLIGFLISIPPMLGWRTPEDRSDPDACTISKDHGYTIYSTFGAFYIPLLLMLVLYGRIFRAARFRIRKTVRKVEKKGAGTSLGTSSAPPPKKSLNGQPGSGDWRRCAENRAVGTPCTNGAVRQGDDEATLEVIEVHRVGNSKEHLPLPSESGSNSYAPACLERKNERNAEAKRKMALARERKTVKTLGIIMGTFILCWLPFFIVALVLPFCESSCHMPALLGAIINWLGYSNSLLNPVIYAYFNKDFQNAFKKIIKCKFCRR
Put plainly: Antagonist activity for the 5-HT1A receptor, [35S]GTPγS assay in hippocampal homogenates. In kind it is biochemical. Particulars: 8-OH-DPAT 1.4 × 10^−7 M, mean ± SEM; for EC50 (nM ± SEM) / EC50: antagonistic activity. As for the experimental part: Male Sprague–Dawley rats were decapitated, their brains removed, and placed on ice. Hippocampi were dissected and homogenized with a glass homogenizer in 30 vol. ice-cold TED buffer (50 mM Tris-HCl, 1 mM EDTA, 1mM dithiotheritol, pH 7.4). Next, the homogenate was centrifuged at 21,000× g for 30 min at 4 °C. […] The suspension was centrifuged again at 21,000× g for 30 min at 4 °C. The pellet was resuspended in 30 vol. TED buffer (pH 7.4) and the centrifugation step was repeated. The final pellet was suspended in 10 vol 50 mM Tris-HCl (pH 7.4) and stored at −80 °C until use.
Serial dilutions of the compounds tested (10^−10–10^−5 M) were incubated in triplicate with 0.8 nM [^35S]GTPγS in assay buffer (50 mM Tris-HCl, pH = 7.4, 1 mM EGTA, 3 mM MgCl2, 100 mM NaCl, 30 µM GDP) and 8-OH-DPAT (final concentration 1.4 × 10^−7 M) in the final assay volume of 250 µL. Hippocampal homogenates (15 μg/mL) were added to each tube as the 5-HT1A receptor source. […] Non-specific binding was determined with 10 µM of unlabeled GTPγS. […] Next, 96-well Unifilter® Plates (Perkin Elmer, Waltham, MA, USA) were presoaked for 1 h with 50 mM Tris-HCl (pH = 7.4) before harvesting. The reaction was terminated by vacuum filtration onto filter plates with the FilterMate Harvester® (Perkin Elmer, Waltham, MA, USA). The samples were then rapidly washed with 2 mL of 50 mM Tris-HCl (pH = 7.4) buffer. Filter plates were dried for 2 h at 50 °C. After drying, 45 µL of EcoScint-20 scintillant (Perkin Elmer) was added to every well. Radioactivity was counted in a Trilux MicroBeta^2 counter (Perkin Elmer). Data were analyzed with GraphPad Prism 5.0 software (GraphPad Software, San Diego, CA, USA, www.graphpad.com). Curves were fitted with a one-site non-linear regression model. Efficacy (Emax) and half maximal inhibitory concentration (IC50) were calculated from the Cheng–Prusoff equation and expressed as means ± SEM.

The next data set has as its target T2, 5-HT2A receptor (Rattus norvegicus, UniProt P14842).
T2 construct: from tissue; host or cells: rat frontal cortex (male SD), membrane homogenate
Put plainly: 5-HT2A competition binding assay, [3H]ketanserin, frontal cortex homogenates. The conditions noted are these: [3H]ketanserin 1 nM. As to the method:
Male SD rats were decapitated and their brains removed and placed on ice. Frontal cortices were homogenized with a glass homogenizer in 30 vol ice-cold homogenization buffer (50 mM Tris-HCl. 1 mM EDTA. 5 mM MgCl2. pH 7.4). Next, the homogenate was centrifuged at 20,000× g for 15 min at 4 °C. […] The suspension was again centrifuged at 20,000× g for 15 min at 4 °C. The pellet was resuspended in 10 vol. 50 mM Tris-HCl (pH 7.4) and the centrifugation step was repeated. The final pellet was suspended in 10 vol 50 mM Tris-HCl (pH 7.4) and stored at −80 °C.
Non-specific binding was determined in the presence of 10 μM mianserin. After incubation, the reaction mixture was deposited onto UniFilter-96 GF/B plates with the aid of a FilterMate-96 Harvester. Filter plates were presoaked beforehand with 0.4% PEI for 1 h. Next, each filter well was washed with 1.75 mL of 50 mM Tris-HCl (pH 7.4) and left to dry on a heating block set to 50 °C for 2 h. Then 45 µL of Microscint-20 scintillation fluid was added to each filter well and left to equilibrate overnight. Filter-bound radioactivity was counted in a MicroBeta^2 Microplate Counter. Binding curves were fitted with one site non-linear regression. Affinity was presented as the inhibitory constant (pKi ± SEM and Ki ± SEM) from two or three separate experiments.

Setting [1] is: read-out: Ki (nM ± SEM) (converted).
The mark [2] stands for this setting: read-out: pKi (M ± SEM) (converted).

Entries after “also recorded” stand apart in the source; their conditions may differ. Where two headings read alike, the source gives them in different places.

T2 sequence (P14842 whole entry): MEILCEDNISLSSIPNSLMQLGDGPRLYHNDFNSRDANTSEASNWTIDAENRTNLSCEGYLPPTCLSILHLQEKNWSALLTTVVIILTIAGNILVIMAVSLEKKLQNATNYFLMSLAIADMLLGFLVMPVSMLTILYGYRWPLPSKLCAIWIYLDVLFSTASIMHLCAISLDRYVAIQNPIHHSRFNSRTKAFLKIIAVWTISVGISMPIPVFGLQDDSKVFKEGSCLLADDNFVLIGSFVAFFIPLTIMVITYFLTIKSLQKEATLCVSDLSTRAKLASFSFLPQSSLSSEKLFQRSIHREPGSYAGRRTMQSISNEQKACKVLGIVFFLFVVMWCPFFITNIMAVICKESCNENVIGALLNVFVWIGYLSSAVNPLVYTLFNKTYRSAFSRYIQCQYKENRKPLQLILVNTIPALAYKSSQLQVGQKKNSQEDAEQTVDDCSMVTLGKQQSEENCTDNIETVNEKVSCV

In turn, `Cc1ccc(C)c(N2CCN(CCOc3cc(C)cc4oc(=O)cc(C)c34)CC2)c1` [Compound 2d, 5-(2-(4-(2,5-dimethylphenyl)piperazin-1-yl)ethoxy)-4,7-dimethyl-2H-chromen-2-one] had a melting point of 119 to 120 °C. For the same compound, on 5-HT1A receptor, the “pIC50 ± SEM” value is reported as “no activity” and the “EC50 (nM ± SEM)” value is reported as “did not show any activity; also recorded: no activity”. In addition, the Ki at 5-HT2A receptor (setting [1]) was 7320 ± 2080 nM. In addition, the Ki on 5-HT2A receptor (setting [2]) was 7410 nM.
Compound `Cc1cc(OCCN2CCN(c3ccccc3Br)CC2)c2c(C)cc(=O)oc2c1` [Compound 2f, 5-(2-(4-(2-bromophenyl)piperazin-1-yl)ethoxy)-4,7-dimethyl-2H-chromen-2-one] displayed a melting point of 129 to 130 °C. On 5-HT1A receptor, the “pIC50 ± SEM” value is “no activity” and the “EC50 (nM ± SEM)” value is given as “did not show any activity; also recorded: no activity”. Also, the Ki at 5-HT2A receptor (setting [1]) is 9600 ± 2840 nM.
Taken in the same sequence, the figures for `Cc1cc(C)cc(N2CCN(CCOc3cc(C)cc4oc(=O)cc(C)c34)CC2)c1` [Compound 2h, 5-(2-(4-(3,5-dimethylphenyl)piperazin-1-yl)ethoxy)-4,7-dimethyl-2H-chromen-2-one] were 149 to 150 °C, “no activity”, “did not show any activity; also recorded: no activity” and 2920 ± 992 nM.
On to `Cc1cc(OCCN2CCN(c3cccc(Cl)c3Cl)CC2)c2c(C)cc(=O)oc2c1` [Compound 2i, 5-(2-(4-(2,3-dichlorophenyl)piperazin-1-yl)ethoxy)-4,7-dimethyl-2H-chromen-2-one], for which the melting point was in the range of 142 to 145 °C. Further, on 5-HT1A receptor, the IC50 was 398 µM and the EC50 came to 366000 nM. Moreover, on 5-HT2A receptor (setting [1]), the Ki was 4310 ± 1550 nM.
`Cc1cc(OCCN2CCN(c3ccccc3C#N)CC2)c2c(C)cc(=O)oc2c1` [Compound 2j, 5-(2-(4-(2-cyanophenyl)piperazin-1-yl)ethoxy)-4,7-dimethyl-2H-chromen-2-one] displayed a melting point of 127 to 129 °C. Also, at 5-HT1A receptor, the “pIC50 ± SEM” value is on record as “no activity” and the “EC50 (nM ± SEM)” value is listed as “did not show any activity; also recorded: no activity”. For the same compound, at 5-HT2A receptor (setting [1]), the Ki was 5620 ± 1850 nM.
With `CC(=O)c1c(C)cc2oc(=O)cc(C)c2c1OCCCCCN1CCN(c2ccccc2F)CC1` [Compound 3b, 6-acetyl-5-(5-(4-(2-fluorophenyl)piperazin-1-yl)pentyloxy)-4,7-dimethyl-2H-chromen-2-one], the melting point lay within 137 to 139 °C. Besides, on 5-HT1A receptor, the IC50 was 20 µM and the EC50 was 19200 nM. At 5-HT2A receptor (setting [1]), the Ki was 1220 ± 166 nM. Also, at 5-HT2A receptor (setting [2]), the Ki is 1170 nM.
The compound `COc1cccc(N2CCN(CCCCCOc3c(C(C)=O)c(C)cc4oc(=O)cc(C)c34)CC2)c1` [Compound 3c, 6-acetyl-5-(5-(4-(3-methoxyphenyl)piperazin-1-yl)pentyloxy)-4,7-dimethyl-2H-chromen-2-one] displayed a melting point of 86 to 88 °C. Besides, on 5-HT1A receptor, the IC50 was 1.58 µM and the response was half-maximal at 1550 ± 190 nM (EC50). Further, the Ki at 5-HT2A receptor (setting [1]) was 492 ± 99.7 nM.
For `CC(=O)c1c(C)cc2oc(=O)cc(C)c2c1OCCCCCN1CCN(c2cc(C)ccc2C)CC1` [Compound 3d, 6-acetyl-5-(5-(4-(2,5-dimethylphenyl)piperazin-1-yl)pentyloxy)-4,7-dimethyl-2H-chromen-2-one] the same measures were 97 to 99 °C, 10 µM, 9430 ± 1040 nM and 1940 ± 388 nM.
Regarding `CC(=O)c1c(C)cc2oc(=O)cc(C)c2c1OCCCCCN1CCN(c2cccc(F)c2)CC1` [Compound 3e, 6-acetyl-5-(5-(4-(3-fluorophenyl)piperazin-1-yl)pentyloxy)-4,7-dimethyl-2H-chromen-2-one], the melting point lay in the range of 150 to 152 °C. At 5-HT1A receptor, this compound gave a concentration for half-maximal inhibition (IC50) of 0.708 µM and a concentration giving a half-maximal response (EC50) of 702 ± 112 nM. For the same compound, the Ki at 5-HT2A receptor (setting [1]) is 1420 ± 426 nM.
Compound `CC(=O)c1c(C)cc2oc(=O)cc(C)c2c1OCCCCCN1CCN(c2ccccc2Br)CC1` [Compound 3f, 6-acetyl-5-(5-(4-(2-bromophenyl)piperazin-1-yl)pentyloxy)-4,7-dimethyl-2H-chromen-2-one] returned a melting point of 108 to 109 °C. At 5-HT1A receptor, the IC50 is 0.692 µM and the EC50 was determined as 689 ± 138 nM. In addition, on 5-HT2A receptor (setting [1]), the Ki is 354 ± 110 nM.
Take `CC(=O)c1c(C)cc2oc(=O)cc(C)c2c1OCCCCCN1CCN(c2cccc(Br)c2)CC1` [Compound 3g, 6-acetyl-5-(5-(4-(3-bromophenyl)piperazin-1-yl)pentyloxy)-4,7-dimethyl-2H-chromen-2-one]: the melting point lay in the range of 100 to 102 °C. On 5-HT1A receptor, this compound gave an IC50 of 1.29 µM and an EC50 of 1280 ± 254 nM. In addition, at 5-HT2A receptor (setting [1]), the Ki was 664 ± 154 nM.
For `CC(=O)c1c(C)cc2oc(=O)cc(C)c2c1OCCCCCN1CCN(c2cc(C)cc(C)c2)CC1` [Compound 3h, 6-acetyl-5-(5-(4-(3,5-dimethylphenyl)piperazin-1-yl)pentyloxy)-4,7-dimethyl-2H-chromen-2-one] the same measures were 100 to 102 °C, 1.26 µM, 1240 ± 112 nM and 1800 ± 521 nM.
Taken in the same sequence, the figures for `CC(=O)c1c(C)cc2oc(=O)cc(C)c2c1OCCCCCN1CCN(c2cccc(Cl)c2Cl)CC1` [Compound 3i, 6-acetyl-5-(5-(4-(2,3-dichlorophenyl)piperazin-1-yl)pentyloxy)-4,7-dimethyl-2H-chromen-2-one] were 129 to 130 °C, 15.8 µM, 15400 nM and 486 ± 102 nM.
For `COc1ccccc1N1CCN(CCOc2c(C(C)=O)c(C)cc3oc(=O)cc(C)c23)CC1` [Compound 4a, 6-acetyl-5-(2-(4-(2-methoxyphenyl)piperazin-1-yl)ethoxy)-4,7-dimethyl-2H-chromen-2-one] the same measures were 132 to 134 °C, 0.1 µM, 91.6 ± 13.3 nM and 5210 ± 1250 nM.
As for `CC(=O)c1c(C)cc2oc(=O)cc(C)c2c1OCCN1CCN(c2ccccc2F)CC1` [Compound 4b, 6-acetyl-5-(2-(4-(2-fluorophenyl)piperazin-1-yl)ethoxy)-4,7-dimethyl-2H-chromen-2-one], the melting point lay within 118 to 119 °C. Also, at 5-HT1A receptor, half-maximal inhibition (IC50) was put at 5.01 µM and a half-maximal effect (EC50) was put at 5000 ± 218 nM. Moreover, on 5-HT2A receptor (setting [1]), the Ki was 7050 ± 1650 nM.
For `COc1cccc(N2CCN(CCOc3c(C(C)=O)c(C)cc4oc(=O)cc(C)c34)CC2)c1` [Compound 4c, 6-acetyl-5-(2-(4-(3-methoxyphenyl)piperazin-1-yl)ethoxy)-4,7-dimethyl-2H-chromen-2-one] the same measures were 75 to 76 °C, 5.01 µM, 5010 ± 117 nM and 513 ± 137 nM.
